Laboratory results: patent US4068070A, “α-Cyanoamine compounds and a process for producing the same” (Fuji Chemical Industry Co., Ltd., priority 1974, dated 1978)

Assays:
Assay type in all cases: in vivo, mongrel adult dogs
[1] = test system: coronary sinus out flow; assay: Effects on coronary sinus out flow
Summary of the method: (§1)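 Intravenous brachial dosing of test compound or active placebo in anesthetized, thoracotomized dogs weighing about 10 kg. Coronary sinus outflow was measured with an electromagnetic flowmeter and oxygen tension with a pO2 electrode after Morawitz cannulation of the sinus.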

[2] = test system: aortic blood flow; assay: Effects on aortic blood flow
Summary of the method: (§2)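 In pentobarbital-anesthetized open-chest mongrels, aortic root flow and carotid-cannula blood pressure are monitored after i.v. administration.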

[3] = test system: coronary sinus oxygen tension; assay: Effects on coronary sinus oxygen tension
Summary of the method: as §1

[4] = test system: heart rate; assay: Effects on heart rate
Summary of the method: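 Adult mongrel dogs of both sexes were anesthetized with pentobarbital and thoracotomized. Test agents, suspended or dissolved in 0.2% CMC, pH 6 HCl solution or saline, were injected intravenously into the brachial vein. Hemodynamic and coronary sinus parameters were then recorded.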

[5] = test system: arterial mean blood pressure; assay: Effects on arterial mean blood pressure
Summary of the method: as §2

COc1ccc(C(C#N)N2CCCN(CC=Cc3ccccc3)CC2)cc1OC (centres unmarked) [Compound E]
Changes(%) of basal values, coronary sinus out flow ([1]; 2.0 mg/kg i.v., 1 min): +2.5% | Changes(%) of basal values, coronary sinus out flow ([1]; 2.0 mg/kg i.v., 5 min): -0.8% | Changes(%) of basal values, coronary sinus out flow ([1]; 2.0 mg/kg i.v., 10 min): -1.0% | Changes(%) of basal values, coronary sinus out flow ([1]; 2.0 mg/kg i.v., 20 min): -0.3% | Changes(%) of basal values, coronary sinus out flow ([1]; 2.0 mg/kg i.v., 30 min): 0% | Changes(%) of basal values, coronary sinus out flow ([1]; 2.0 mg/kg i.v., 40 min): 0% | Changes(%) of basal values, coronary sinus out flow ([1]; 2.0 mg/kg i.v., imm.): +7.8% | Changes(%) of basal values, coronary sinus out flow ([1]; 6.0 mg/kg i.v., 1 min): +24.3% | Changes(%) of basal values, coronary sinus out flow ([1]; 6.0 mg/kg i.v., 5 min): +4.2% | Changes(%) of basal values, coronary sinus out flow ([1]; 6.0 mg/kg i.v., 10 min): +3.3% | Changes(%) of basal values, coronary sinus out flow ([1]; 6.0 mg/kg i.v., 20 min): +2.3% | Changes(%) of basal values, coronary sinus out flow ([1]; 6.0 mg/kg i.v., 30 min): +1.5% | Changes(%) of basal values, coronary sinus out flow ([1]; 6.0 mg/kg i.v., 40 min): +1.1% | Changes(%) of basal values, coronary sinus out flow ([1]; 6.0 mg/kg i.v., imm.): +51.3% | Changes(%) of basal values, coronary sinus out flow ([1]; 20.0 mg/kg i.v., 1 min): +64.3% | Changes(%) of basal values, coronary sinus out flow ([1]; 20.0 mg/kg i.v., 5 min): +14.7% | Changes(%) of basal values, coronary sinus out flow ([1]; 20.0 mg/kg i.v., 10 min): +15.8% | Changes(%) of basal values, coronary sinus out flow ([1]; 20.0 mg/kg i.v., 20 min): +15.4% | Changes(%) of basal values, coronary sinus out flow ([1]; 20.0 mg/kg i.v., 30 min): +12.1% | Changes(%) of basal values, coronary sinus out flow ([1]; 20.0 mg/kg i.v., 40 min): +9.8% | Changes(%) of basal values, coronary sinus out flow ([1]; 20.0 mg/kg i.v., imm.): +90.3% | Effects on coronary sinus out flow (in words) ([1]; i.v., anesthetized dogs): a marked increasing effect on coronary sinus out flow, which was proportioned to doses thereof and of long duration | Changes (%) of basal values, aortic blood flow ([2]; 2.0 mg/kg i.v., 1 min): +3.6% | Changes (%) of basal values, aortic blood flow ([2]; 2.0 mg/kg i.v., 5 min): +0.8% | Changes (%) of basal values, aortic blood flow ([2]; 2.0 mg/kg i.v., 10 min): 0% | Changes (%) of basal values, aortic blood flow ([2]; 2.0 mg/kg i.v., 20 min): 0% | Changes (%) of basal values, aortic blood flow ([2]; 2.0 mg/kg i.v., 30 min): 0% | Changes (%) of basal values, aortic blood flow ([2]; 2.0 mg/kg i.v., 40 min): 0% | Changes (%) of basal values, aortic blood flow ([2]; 2.0 mg/kg i.v., imm.): +9.9% | Changes (%) of basal values, aortic blood flow ([2]; 6.0 mg/kg i.v., 1 min): +5.8% | Changes (%) of basal values, aortic blood flow ([2]; 6.0 mg/kg i.v., 5 min): 0% | Changes (%) of basal values, aortic blood flow ([2]; 6.0 mg/kg i.v., 10 min): -3.7% | Changes (%) of basal values, aortic blood flow ([2]; 6.0 mg/kg i.v., 20 min): -2.8% | Changes (%) of basal values, aortic blood flow ([2]; 6.0 mg/kg i.v., 30 min): -1.5% | Changes (%) of basal values, aortic blood flow ([2]; 6.0 mg/kg i.v., 40 min): -0.3% | Changes (%) of basal values, aortic blood flow ([2]; 6.0 mg/kg i.v., imm.): +11.7% | Changes (%) of basal values, aortic blood flow ([2]; 20.0 mg/kg i.v., 1 min): +7.6% | Changes (%) of basal values, aortic blood flow ([2]; 20.0 mg/kg i.v., 5 min): -4.8% | Changes (%) of basal values, aortic blood flow ([2]; 20.0 mg/kg i.v., 10 min): -12.4% | Changes (%) of basal values, aortic blood flow ([2]; 20.0 mg/kg i.v., 20 min): -10.5% | Changes (%) of basal values, aortic blood flow ([2]; 20.0 mg/kg i.v., 30 min): -9.5% | Changes (%) of basal values, aortic blood flow ([2]; 20.0 mg/kg i.v., 40 min): -7.6% | Changes (%) of basal values, aortic blood flow ([2]; 20.0 mg/kg i.v., imm.): +16.3% | Effects on aortic blood flow (in words) ([2]; i.v., anesthetized dogs): an increase in blood flow immediately after administration, followed by a decrease in blood flow | Changes(%) of basal values, coronary sinus oxygen tension ([3]; 2.0 mg/kg i.v., 1 min): +4.1% | Changes(%) of basal values, coronary sinus oxygen tension ([3]; 2.0 mg/kg i.v., 5 min): +1.1% | Changes(%) of basal values, coronary sinus oxygen tension ([3]; 2.0 mg/kg i.v., 10 min): +0.5% | Changes(%) of basal values, coronary sinus oxygen tension ([3]; 2.0 mg/kg i.v., 20 min): 0% | Changes(%) of basal values, coronary sinus oxygen tension ([3]; 2.0 mg/kg i.v., 30 min): 0% | Changes(%) of basal values, coronary sinus oxygen tension ([3]; 2.0 mg/kg i.v., 40 min): 0% | Changes(%) of basal values, coronary sinus oxygen tension ([3]; 2.0 mg/kg i.v., imm.): +8.3% | Changes(%) of basal values, coronary sinus oxygen tension ([3]; 6.0 mg/kg i.v., 1 min): +27.0% | Changes(%) of basal values, coronary sinus oxygen tension ([3]; 6.0 mg/kg i.v., 5 min): +8.0% | Changes(%) of basal values, coronary sinus oxygen tension ([3]; 6.0 mg/kg i.v., 10 min): +8.5% | Changes(%) of basal values, coronary sinus oxygen tension ([3]; 6.0 mg/kg i.v., 20 min): +4.2% | Changes(%) of basal values, coronary sinus oxygen tension ([3]; 6.0 mg/kg i.v., 30 min): +2.5% | Changes(%) of basal values, coronary sinus oxygen tension ([3]; 6.0 mg/kg i.v., 40 min): +0.8% | Changes(%) of basal values, coronary sinus oxygen tension ([3]; 6.0 mg/kg i.v., imm.): +29.7% | Changes(%) of basal values, coronary sinus oxygen tension ([3]; 20.0 mg/kg i.v., 1 min): +39.2% | Changes(%) of basal values, coronary sinus oxygen tension ([3]; 20.0 mg/kg i.v., 5 min): +20.4% | Changes(%) of basal values, coronary sinus oxygen tension ([3]; 20.0 mg/kg i.v., 10 min): +16.6% | Changes(%) of basal values, coronary sinus oxygen tension ([3]; 20.0 mg/kg i.v., 20 min): +20.8% | Changes(%) of basal values, coronary sinus oxygen tension ([3]; 20.0 mg/kg i.v., 30 min): +20.2% | Changes(%) of basal values, coronary sinus oxygen tension ([3]; 20.0 mg/kg i.v., 40 min): +19.8% | Changes(%) of basal values, coronary sinus oxygen tension ([3]; 20.0 mg/kg i.v., imm.): +46.2% | Effects on coronary sinus oxygen tension (in words) ([3]; i.v., anesthetized dogs): a significant increase in coronary sinus oxygen tension, effect of which was of long duration | Changes(%) of basal values, heart rate ([4]; 2.0 mg/kg i.v., 1 min): -0.2% | Changes(%) of basal values, heart rate ([4]; 2.0 mg/kg i.v., 5 min): -0.6% | Changes(%) of basal values, heart rate ([4]; 2.0 mg/kg i.v., 10 min): -1.3% | Changes(%) of basal values, heart rate ([4]; 2.0 mg/kg i.v., 20 min): 0% | Changes(%) of basal values, heart rate ([4]; 2.0 mg/kg i.v., 30 min): 0% | Changes(%) of basal values, heart rate ([4]; 2.0 mg/kg i.v., 40 min): 0% | Changes(%) of basal values, heart rate ([4]; 2.0 mg/kg i.v., imm.): -2.9% | Changes(%) of basal values, heart rate ([4]; 6.0 mg/kg i.v., 1 min): -0.9% | Changes(%) of basal values, heart rate ([4]; 6.0 mg/kg i.v., 5 min): -3.7% | Changes(%) of basal values, heart rate ([4]; 6.0 mg/kg i.v., 10 min): -1.4% | Changes(%) of basal values, heart rate ([4]; 6.0 mg/kg i.v., 20 min): -1.3% | Changes(%) of basal values, heart rate ([4]; 6.0 mg/kg i.v., 30 min): -0.8% | Changes(%) of basal values, heart rate ([4]; 6.0 mg/kg i.v., 40 min): -0.6% | Changes(%) of basal values, heart rate ([4]; 6.0 mg/kg i.v., imm.): -9.1% | Changes(%) of basal values, heart rate ([4]; 20.0 mg/kg i.v., 1 min): -1.0% | Changes(%) of basal values, heart rate ([4]; 20.0 mg/kg i.v., 5 min): -7.8% | Changes(%) of basal values, heart rate ([4]; 20.0 mg/kg i.v., 10 min): -9.1% | Changes(%) of basal values, heart rate ([4]; 20.0 mg/kg i.v., 20 min): -7.9% | Changes(%) of basal values, heart rate ([4]; 20.0 mg/kg i.v., 30 min): -7.1% | Changes(%) of basal values, heart rate ([4]; 20.0 mg/kg i.v., 40 min): -6.6% | Changes(%) of basal values, heart rate ([4]; 20.0 mg/kg i.v., imm.): -16.8% | Effects on heart rate (in words) ([4]; i.v., anesthetized dogs): a slight negative chronotropic effect | Changes (%) of basal values, arterial mean blood pressure ([5]; 2.0 mg/kg i.v., 1 min): -1.5% | Changes (%) of basal values, arterial mean blood pressure ([5]; 2.0 mg/kg i.v., 5 min): -3.3% | Changes (%) of basal values, arterial mean blood pressure ([5]; 2.0 mg/kg i.v., 10 min): -2.1% | Changes (%) of basal values, arterial mean blood pressure ([5]; 2.0 mg/kg i.v., 20 min): -1.0% | Changes (%) of basal values, arterial mean blood pressure ([5]; 2.0 mg/kg i.v., 30 min): -0.3% | Changes (%) of basal values, arterial mean blood pressure ([5]; 2.0 mg/kg i.v., 40 min): 0% | Changes (%) of basal values, arterial mean blood pressure ([5]; 2.0 mg/kg i.v., imm.): -7.4% | Changes (%) of basal values, arterial mean blood pressure ([5]; 6.0 mg/kg i.v., 1 min): -3.8% | Changes (%) of basal values, arterial mean blood pressure ([5]; 6.0 mg/kg i.v., 5 min): -6.0% | Changes (%) of basal values, arterial mean blood pressure ([5]; 6.0 mg/kg i.v., 10 min): -10.9% | Changes (%) of basal values, arterial mean blood pressure ([5]; 6.0 mg/kg i.v., 20 min): -8.2% | Changes (%) of basal values, arterial mean blood pressure ([5]; 6.0 mg/kg i.v., 30 min): -3.8% | Changes (%) of basal values, arterial mean blood pressure ([5]; 6.0 mg/kg i.v., 40 min): -2.8% | Changes (%) of basal values, arterial mean blood pressure ([5]; 6.0 mg/kg i.v., imm.): -22.6% | Changes (%) of basal values, arterial mean blood pressure ([5]; 20.0 mg/kg i.v., 1 min): -8.3% | Changes (%) of basal values, arterial mean blood pressure ([5]; 20.0 mg/kg i.v., 5 min): -15.9% | Changes (%) of basal values, arterial mean blood pressure ([5]; 20.0 mg/kg i.v., 10 min): -21.2% | Changes (%) of basal values, arterial mean blood pressure ([5]; 20.0 mg/kg i.v., 20 min): -19.9% | Changes (%) of basal values, arterial mean blood pressure ([5]; 20.0 mg/kg i.v., 30 min): -16.2% | Changes (%) of basal values, arterial mean blood pressure ([5]; 20.0 mg/kg i.v., 40 min): -11.4% | Changes (%) of basal values, arterial mean blood pressure ([5]; 20.0 mg/kg i.v., imm.): -29.9% | Effects on arterial mean blood pressure (in words) ([5]; i.v., anesthetized dogs): hypotensive effects being proportioned to their doses which were of long duration
